In US12583884B2, “3beta-(benzyloxy)-17alpha-methyl-pregn-5-en-20-one for use in the treatment of cognitive disorders” (AELIS FARMA, priority 2018, dated 2026):

Experiments:
[1] = molecular target: T1, mutant human CB1 receptor (hCB1p.E1.49G) (Homo sapiens, UniProt P21554, E133G); experiment: THC-induced inhibition of cellular respiration in HEK-293-hCB1-Mut; assay type: cell-based; conditions: 100 nM, THC 1 μM
T1 construct: expressed in transfected cells; host or cells: HEK-293 (transient)
Description: In a second study (FIG. 5B), HEK-293 cells were transiently transfected either with the wild-type hCB1-expressing plasmid (HEK-293-hCB1-WT) or with the mutant hCB1p.E1.49G-expressing plasmid (HEK-293-hCB1-Mut). In this mutant the glutamate amino acid at position 1.49 was substituted by a glycine. […] After 15 min of incubation, THC (0; 1 μM, dissolved in EtOH, 0.0034%) was added in the culture dishes for 30 minutes.
Cellular respiration was measured in a calibrated oxygraph equipped with a Clark electrode. Oxygen consumption (OC) rate was used to measure cellular respiration.

[2] = test system: 19 to 22-month-old C57B1/6J mice; experiment: Declarative/relational memory (radial maze flexibility test), aged mice; assay type: in vivo, mouse; conditions: 0.6 μg/ml in drinking water, chance level 50%
Description: The relational memory task was performed using 8-arm radial mazes described in Example 3b. Food restriction and habituation procedures were performed as described in Example 3b. Acquisition began 24 h after the last habituation session. The acquisition stage consisted in learning the positions of the food pellets within the maze. […] One arm of each pair contained reward at its end, the other arm of each pair was not baited.
Acquisition is based on a go-no go procedure. The arms are presented one by one. Subjects are expected to visit the rewarded arms faster than the non-rewarded arms. At the beginning of each daily session, the mouse was placed at the center of the maze with no access to the arms. The doors of the first arm then opened. […] The door of an arm then open immediately after (0-sec inter-trial interval). […] Each daily session contained 40 successive arm presentations (i.e. trials) organized into two distinct temporal sequences. In the first sequence (20 trials), four arms of the maze were presented alternatively (two baited and two non-baited). Consecutively, the second sequence started (20 trials); the four other arms of the maze were presented alternatively (two baited and two non-baited). […]
At each trial, the latency to visit the arm is measured. […]
Flexibility of learning was evaluated in the following conditions. […]
The percentage of correct responses for each pair was measured. […]

[3] = Depressive-like behaviors in the sucrose preference test; assay type: in vivo, mouse
Description: Sucrose preference was tested in the home cages of the mice. A sucrose solution containing 2% of sucrose (D(+) saccharose) in tap water was poured in plastic graduated bottles (volume in each bottle, 45 ml). Identical bottles were filled with tap water. All the mice were first habituated to the bottles and to the sucrose solution. One bottle containing water and one bottle containing sucrose were placed in the hopper of each home cage. […] The mice had access to the solutions from the beginning of the dark phase, at the daily peak of food and water consumption (from 7 pm to 8.30 am). The sucrose preference test was performed seven days later. Water and sucrose solutions were presented as described for habituation except that mice had access to the solutions from 12 pm to 10 pm. At each time point, the bottles were weighed, 1 g corresponding to 1 ml. The intake volume was calculated by subtracting the initial bottle weight to the final bottle weight.
15 or 30 mg/kg or of vehicle (corn oil; 5 ml/kg) was studied in the sucrose preference test in 2-month-old male C57B1/6J mice (n=7-8 per group). Rimonabant was dissolved in a vehicle containing dimethylsulfoxide (DMSO, 2%), Tween80 (2%) in injectable NaCl 0.9%. Within the same study, the effect of repeated intraperitoneal injections of rimonabant at 10 mg/kg or of vehicle alone (10 ml/kg) was studied in the sucrose preference test in 2-month-old male C57B1/6J mice (n=8 per group).

[4] = test system: 85 receptors; experiment: CEREP High-throughput binding profile (85 receptors), whole panel
Excerpt: The CEREP High-throughput profile consists of a broad collection of 80 transmembrane and soluble receptors, ion channels and G-Protein coupled receptors.

[5] = Spontaneous behaviors in the home cage (video analysis); assay type: in vivo, mouse; conditions: 30 mg/kg per os; 24 hours video analysis

T1 sequence (P21554 whole entry E133G): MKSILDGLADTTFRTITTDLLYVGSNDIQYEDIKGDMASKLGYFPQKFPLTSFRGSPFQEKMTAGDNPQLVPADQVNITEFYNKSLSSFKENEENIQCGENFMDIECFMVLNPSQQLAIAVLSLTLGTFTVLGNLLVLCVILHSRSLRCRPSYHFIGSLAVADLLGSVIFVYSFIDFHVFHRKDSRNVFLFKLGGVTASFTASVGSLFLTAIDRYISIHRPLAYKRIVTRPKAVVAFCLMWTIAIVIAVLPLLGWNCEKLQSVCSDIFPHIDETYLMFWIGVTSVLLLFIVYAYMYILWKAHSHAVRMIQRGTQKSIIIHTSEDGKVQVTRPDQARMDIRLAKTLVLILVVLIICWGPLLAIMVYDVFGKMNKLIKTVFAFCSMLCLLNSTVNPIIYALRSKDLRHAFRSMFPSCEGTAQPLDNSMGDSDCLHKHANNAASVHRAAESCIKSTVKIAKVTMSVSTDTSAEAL

## CC(=O)[C@@]1(C)CC[C@H]2[C@@H]3CC=C4C[C@@H](OCc5ccccc5)CC[C@]4(C)[C@H]3CC[C@@]21C [3Bn17MeP, 3β-benzyloxy, 17α-methyl-pregn-5-en-20-one]
[1]
  Effect on THC-induced decrease in cellular respiration: insensitive
[2]
  Correct responses in the flexibility test (choice accuracy): more than 70%
[3]; 0.05, 5, 15, 30 mg/kg per os once a day, 28 days
  Sucrose intake: had no effect on sucrose intake
[3]; male mice, highest dose tested 30 mg/kg
  Effect: increase in depression-related behaviors (repeated administration): No
[4]; 10 μM
  Modification of the binding of the 85 receptors: does not modify the binding of any of the 85 receptors
[4]; CEREP High-throughput binding profile (85 receptors), read-out: ID50 (the source's name)
  IC50: > 10 µM
[5]
  Effects on spontaneous behaviors per se: no detectable effects
